Data set [1] is described as follows: Stability of the solid upon drying under vacuum. It counts as physicochemical. As to conditions: solids collected by filtration and dried under vacuum. As to the method: (§1) Alternatively, after the oil is formed from the evaporation of the ethanol, acetone is added to the oil at a temperature effective to solubilize the oil, ranging from about 30° C. to about 60° C., such as 45° C., and then the resulting mixture is cooled to room temperature. A non-polar antisolvent, such as n-heptane is added to the solution with stirring to form a slurry comprising N-ethyl-2-(5-fluoro-1H-indol-3-yl)-N-methylethan-1-amine monosuccinate, from which a crystalline solid comprising N-ethyl-2-(5-fluoro-1H-indol-3-yl)-N-methylethan-1-amine monosuccinate is crystallized, for example, by seeding, scratching, or aging. The solids are collected by filtration and dried under vacuum.

Data set [2] is described as follows: Overnight humidity exposure at 30° C./90% relative humidity. It counts as physicochemical. Conditions: 30° C./90% relative humidity (RH). How it is done:
as §1

As for `CCN(C)CCc1c[nH]c2ccc(F)cc12.O=C(O)CCC(=O)O` [N-ethyl-2-(5-fluoro-1H-indol-3-yl)-N-methylethan-1-amine monosuccinate], the stability upon drying entry in data set [1] is reported as “stable upon drying”. For the same molecule, the “behaviour after humidity exposure (deliquescence)” value in data set [2] was “deliquesces”.

These data come from patent US12129234B1, “Crystalline salts of N-ethyl-(5-fluoro-1H-indol-3-yl)-N-methylethan-1-amine” (Gilgamesh Pharmaceuticals, Inc., priority 2023, dated 2024).
